Data taken from PubChem BioAssay (NCI).
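Values below derive from 48-hour exposures of cells grown in 96-well plates, with endpoints linearly interpolated between the two concentrations bracketing the appropriate inhibition level. TGI: concentration producing complete growth inhibition.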

Tests used:
Experiment in all cases: NCI anticancer screen, dose series, 48 h
[1] = system: 786-0 renal
[2] = system: A498 renal
[3] = system: A549 NSCLC
[4] = system: ACHN renal
[5] = system: BT-549 breast
[6] = system: CAKI-1 renal
[7] = system: CCRF-CEM leukemia
[8] = system: COLO 205 colon
[9] = system: DU-145 prostate
[10] = system: EKVX NSCLC
[11] = system: HCC-2998 colon
[12] = system: HCT-116 colon
[13] = system: HCT-15 colon
[14] = system: HL-60(TB) leukemia
[15] = system: HOP-62 NSCLC
[16] = system: HOP-92 NSCLC
[17] = system: HS 578T breast
[18] = system: HT29 colon
[19] = system: IGROV1 ovarian
[20] = system: K-562 leukemia
[21] = system: KM12 colon
[22] = system: LOX IMVI melanoma
[23] = system: M14 melanoma
[24] = system: MALME-3M melanoma
[25] = system: MCF7 breast
[26] = system: MDA-MB-231 breast
[27] = system: MDA-MB-435
[28] = system: MDA-N
[29] = system: MOLT-4 leukemia
[30] = system: NCI-H226 lung
[31] = system: NCI-H23 lung
[32] = system: NCI-H460 lung
[33] = system: NCI-H522 lung
[34] = system: NCI/ADR-RES ovarian
[35] = system: OVCAR-3 ovarian
[36] = system: OVCAR-4 ovarian
[37] = system: OVCAR-5 ovarian
[38] = system: OVCAR-8 ovarian
[39] = system: PC-3 prostate
[40] = system: RPMI-8226 leukemia
[41] = system: RXF 393 renal
[42] = system: SF-268 CNS
[43] = system: SF-295 CNS
[44] = system: SF-539 CNS
[45] = system: SK-MEL-2 melanoma
[46] = system: SK-MEL-28 melanoma
[47] = system: SK-MEL-5 melanoma
[48] = system: SK-OV-3 ovarian
[49] = system: SNB-19 CNS
[50] = system: SNB-75 CNS
[51] = system: SR leukemia
[52] = system: SW-620 colon
[53] = system: T-47D breast
[54] = system: TK-10 renal
[55] = system: U251 CNS
[56] = system: UACC-257 melanoma
[57] = system: UACC-62 melanoma
[58] = system: UO-31 renal
[59] = system: DLD-1 colon
[60] = system: DMS 273 small cell lung
[61] = system: HOP-18 NSCLC
[62] = system: LXFL 529 NSCLC
[63] = system: SN12C renal
[64] = system: XF 498 CNS

`C[C@]12CC[C@H]3[C@@H](CC=C4C[C@@H](O)CC[C@@]43C)[C@@H]1C/C(=C/c1ccccc1)[C@@H]2O` was tested, and the TGI [1] was > 51.9 µM, the TGI [2] was 35.8 µM and the TGI [3] was > 51.5 µM. For the same compound, the TGI [4] was > 61.4 µM, the TGI [5] was 72.4 µM and the TGI [6] was > 58.9 µM. The TGI [7] was > 100 µM, the TGI [8] was 98.9 µM and the TGI [9] was > 64.2 µM. The TGI [10] was > 70 µM, the TGI [11] was > 60.3 µM and the TGI [12] was > 45.3 µM. For the same compound, the TGI [13] was > 100 µM, the TGI [14] was > 100 µM and the TGI [15] was 54.8 µM. For the same compound, the TGI [16] was > 69.6 µM, the TGI [17] was 98 µM and the TGI [18] was > 79.3 µM. The TGI [19] was 43.9 µM, the TGI [20] was > 100 µM and the TGI [21] was > 78.8 µM. The TGI [22] was > 50.2 µM, the TGI [23] was > 77.8 µM and the TGI [24] was 79.4 µM. The TGI [25] was > 68.2 µM, the TGI [26] was > 76.9 µM and the TGI [27] was > 83.4 µM. For the same compound, the TGI [28] was 65.5 µM, the TGI [29] was > 100 µM and the TGI [30] was 66.1 µM. For the same compound, the TGI [31] was > 100 µM, the TGI [32] was > 100 µM and the TGI [33] was > 100 µM. The TGI [34] was > 89.1 µM, the TGI [35] was 43.3 µM and the TGI [36] was > 73.2 µM. The TGI [37] was > 76.5 µM, the TGI [38] was 52.1 µM and the TGI [39] was > 57.2 µM. The TGI [40] was > 100 µM, the TGI [41] was > 57 µM and the TGI [42] was 89.2 µM. The TGI [43] was > 65.9 µM, the TGI [44] was > 86.2 µM and the TGI [45] was 57.9 µM. The TGI [46] was > 91.2 µM, the TGI [47] was > 100 µM and the TGI [48] was > 66.7 µM. For the same compound, the TGI [49] was > 56.5 µM, the TGI [50] was > 68.5 µM and the TGI [51] was > 100 µM. For the same compound, the TGI [52] was > 100 µM, the TGI [53] was > 59.1 µM and the TGI [54] was > 53.3 µM. The TGI [55] was > 50.5 µM, the TGI [56] was 45.4 µM and the TGI [57] was 56.5 µM. For the same compound, the TGI [58] was > 62 µM.

For `COc1cc(C2c3cc4c(cc3[C@H](NS(C)(=O)=O)C3COC(=O)[C@H]23)OCO4)cc(OC)c1OC` (stereo not given in full), the TGI [1] was > 100 µM, the TGI [4] was > 100 µM and the TGI [7] was > 100 µM. For the same compound, the TGI [8] was 0.436 µM, the TGI [59] was > 100 µM and the TGI [60] was > 100 µM. For the same compound, the TGI [11] was > 100 µM, the TGI [13] was > 100 µM and the TGI [14] was 0.883 µM. For the same compound, the TGI [61] was > 100 µM, the TGI [18] was > 100 µM and the TGI [20] was > 100 µM. For the same compound, the TGI [21] was > 100 µM, the TGI [22] was > 100 µM and the TGI [62] was > 100 µM. For the same compound, the TGI [23] was > 100 µM, the TGI [24] was > 100 µM and the TGI [29] was 18.5 µM. For the same compound, the TGI [30] was 0.625 µM, the TGI [32] was > 100 µM and the TGI [37] was > 100 µM. The TGI [38] was > 100 µM, the TGI [40] was 46.3 µM and the TGI [42] was > 100 µM. For the same compound, the TGI [45] was > 100 µM, the TGI [63] was > 100 µM and the TGI [51] was > 100 µM. For the same compound, the TGI [54] was > 100 µM, the TGI [56] was > 100 µM and the TGI [57] was > 100 µM. For the same compound, the TGI [58] was > 100 µM and the TGI [64] was > 100 µM.
